Data published in ChEMBL document CHEMBL6083240, “Design, synthesis and biological evaluation of arylpropylamine derivatives as potential multi-target antidepressants” (Bioorg Med Chem, 2024).
Calls of active or inactive are those of the source. No cut-off for these calls is given here.

Tests used:
[1] = molecular target: Sodium-dependent serotonin transporter (Rattus norvegicus, UniProt P31652); assay: Displacement of [3H]-paroxetine from SERT in rat cerebral cortex incubated for 10 mins by liquid scintillation counting method; format: tissue-based
Transporter [2] = molecular target: T1, Transporter (Rattus norvegicus, UniProt Q63380); assay: Displacement of [3H]-nisoxetine from NET in rat hippocampal membrane incubated for 8 hrs by liquid scintillation counting method; format: cell membranes, Hippocampus
[3] = Acute toxicity in po dosed Sprague-Dawley rat assessed as mortality rate measured after 24 hrs; format: organism-based; details: in vivo
[4] = molecular target: 5-hydroxytryptamine receptor 2A (Rattus norvegicus, UniProt P14842); assay: Displacement of [3H]-ketanserin from 5-HT2A in rat cerebral cortex incubated for 15 mins by liquid scintillation counting method; format: tissue-based
[5] = molecular target: T2, 5-hydroxytryptamine receptor 2C (Rattus norvegicus, UniProt P08909); assay: Displacement of [3H]-mesulergine from 5-HT2C in rat cerebral cortex incubated for 15 mins by liquid scintillation counting method; format: tissue-based
T2 sequence (P08909 whole entry): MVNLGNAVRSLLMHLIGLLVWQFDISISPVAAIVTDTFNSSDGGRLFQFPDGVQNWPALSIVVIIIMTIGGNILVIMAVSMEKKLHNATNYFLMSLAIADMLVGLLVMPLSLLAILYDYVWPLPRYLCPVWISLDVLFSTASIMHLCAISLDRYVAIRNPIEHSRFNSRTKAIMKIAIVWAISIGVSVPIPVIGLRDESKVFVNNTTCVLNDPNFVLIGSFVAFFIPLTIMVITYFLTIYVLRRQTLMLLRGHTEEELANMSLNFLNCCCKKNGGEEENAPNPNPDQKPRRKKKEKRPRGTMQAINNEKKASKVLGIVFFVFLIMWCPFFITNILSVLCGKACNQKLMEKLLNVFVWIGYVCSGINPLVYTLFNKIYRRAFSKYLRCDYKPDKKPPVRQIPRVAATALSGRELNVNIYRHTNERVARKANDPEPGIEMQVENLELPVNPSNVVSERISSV

[6] = molecular target: T3, Alpha-1A adrenergic receptor (Rattus norvegicus, UniProt P43140); assay: Displacement of [3H]-prazosin from adrenergic alpha-1 receptor in rat cerebral cortex incubated for 60 mins by liquid scintillation counting method; format: toxicity, tissue-based
T3 sequence (P43140 whole entry): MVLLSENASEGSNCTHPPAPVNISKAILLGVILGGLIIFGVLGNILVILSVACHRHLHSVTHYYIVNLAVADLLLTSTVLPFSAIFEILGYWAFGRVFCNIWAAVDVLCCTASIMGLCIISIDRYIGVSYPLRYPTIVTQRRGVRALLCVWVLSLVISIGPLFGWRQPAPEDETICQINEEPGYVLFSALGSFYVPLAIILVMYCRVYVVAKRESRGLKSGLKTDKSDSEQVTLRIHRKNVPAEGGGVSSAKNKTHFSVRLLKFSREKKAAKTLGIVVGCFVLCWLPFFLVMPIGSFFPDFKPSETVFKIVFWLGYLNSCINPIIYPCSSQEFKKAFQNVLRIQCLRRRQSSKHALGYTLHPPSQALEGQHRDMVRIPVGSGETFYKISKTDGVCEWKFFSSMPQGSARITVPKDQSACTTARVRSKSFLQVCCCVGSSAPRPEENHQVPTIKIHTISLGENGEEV

histamine H1 receptor = assay: Displacement of [3H]-pyrilamine from H1 receptor in guinea pig cerebellum membrane incubated for 60 mins by liquid scintillation counting method; format: toxicity, cell membranes, Cavia porcellus; details: probe [3H]-pyrilamine
Mus musculus [7] = assay: Antidepressant activity in IG dosed Kunming mouse assessed as decrease in immobility time by measuring minimal effective dose by forced swimming test; format: functional
Mus musculus [8] = assay: Antidepressant activity in IG dosed Kunming mouse assessed as decrease in immobility time by measuring minimal effective dose by tail suspension test; format: functional
[9] = In vivo inhibition of 5-HT2A in po dosed DOI-induced Kunming mouse assessed as reduction in head twitch response pretreated for 60 mins followed by DOI induction and measured for 20 mins; format: functional; details: 1.333 h, time 80 min
[10] = molecular target: 5-hydroxytryptamine receptor 2A (Homo sapiens, UniProt P28223); assay: Agonist activity at 5-HT2A in HEK293 cells at 10 uM incubated for 60 mins by FLIPR assay relative to control; format: functional, cell-based
[11] = molecular target: Voltage-gated inwardly rectifying potassium channel KCNH2 (Homo sapiens, UniProt Q12809); assay: Inhibition of human ERG expressed in HEK293 cells by whole-cell patch clamp method; format: toxicity, cell-based
Transporter [12] = molecular target: T1, Transporter; assay: Binding affinity to rat NET
[13] = molecular target: Sodium-dependent serotonin transporter (Rattus norvegicus) (UniProt P31652); assay: Antagonist activity at rat cerebral cortex membrane SERT at 10 uM incubated for 10 mins in presence of [3H]5-HT relative to control; format: cell membranes; parameters: scale not given: the % may be the effect or the level left; details: filed as antagonist
Rattus norvegicus = assay: Antidepressant activity against ACTH-induced treatment resistant depression in Sprague-Dawley rat model assessed as reduction in immobility time at 30 mg/kg, ip by forced swimming test; format: functional, organism-based

Sequence of Sodium-dependent serotonin transporter (P31652 whole entry): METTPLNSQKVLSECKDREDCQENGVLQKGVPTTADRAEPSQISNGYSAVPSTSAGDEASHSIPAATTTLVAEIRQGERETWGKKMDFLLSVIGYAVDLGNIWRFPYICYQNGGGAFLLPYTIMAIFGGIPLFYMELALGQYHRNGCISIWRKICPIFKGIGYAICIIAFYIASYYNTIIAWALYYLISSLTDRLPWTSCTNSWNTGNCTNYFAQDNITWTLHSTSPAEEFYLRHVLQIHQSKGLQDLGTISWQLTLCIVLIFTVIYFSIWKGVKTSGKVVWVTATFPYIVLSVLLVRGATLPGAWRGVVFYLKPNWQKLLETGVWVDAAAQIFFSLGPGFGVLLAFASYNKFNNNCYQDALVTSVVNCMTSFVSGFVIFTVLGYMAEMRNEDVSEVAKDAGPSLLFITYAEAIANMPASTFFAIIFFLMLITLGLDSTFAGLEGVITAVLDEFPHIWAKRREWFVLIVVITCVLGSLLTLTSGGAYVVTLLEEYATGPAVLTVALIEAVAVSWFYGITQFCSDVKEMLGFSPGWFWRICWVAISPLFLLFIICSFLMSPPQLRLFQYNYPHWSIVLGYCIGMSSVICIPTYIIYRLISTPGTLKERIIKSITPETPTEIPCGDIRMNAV
T1 sequence (Q63380 whole entry): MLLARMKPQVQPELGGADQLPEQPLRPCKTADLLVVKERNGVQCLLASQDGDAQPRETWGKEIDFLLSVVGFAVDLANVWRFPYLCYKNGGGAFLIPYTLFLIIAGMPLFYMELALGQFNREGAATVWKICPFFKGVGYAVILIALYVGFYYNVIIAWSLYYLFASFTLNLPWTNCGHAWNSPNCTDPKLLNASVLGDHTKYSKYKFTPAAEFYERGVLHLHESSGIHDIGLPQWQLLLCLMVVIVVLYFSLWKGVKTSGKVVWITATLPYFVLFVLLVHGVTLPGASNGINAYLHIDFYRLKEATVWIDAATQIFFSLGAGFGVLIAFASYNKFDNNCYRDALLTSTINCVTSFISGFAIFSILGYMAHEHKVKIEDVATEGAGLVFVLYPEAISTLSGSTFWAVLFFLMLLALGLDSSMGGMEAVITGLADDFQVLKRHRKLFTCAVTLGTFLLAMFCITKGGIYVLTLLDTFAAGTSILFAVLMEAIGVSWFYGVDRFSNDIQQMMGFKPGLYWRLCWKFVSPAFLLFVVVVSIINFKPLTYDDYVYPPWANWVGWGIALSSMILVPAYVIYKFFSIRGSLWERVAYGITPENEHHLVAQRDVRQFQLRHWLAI
Sequence of Voltage-gated inwardly rectifying potassium channel KCNH2 (Q12809 whole entry): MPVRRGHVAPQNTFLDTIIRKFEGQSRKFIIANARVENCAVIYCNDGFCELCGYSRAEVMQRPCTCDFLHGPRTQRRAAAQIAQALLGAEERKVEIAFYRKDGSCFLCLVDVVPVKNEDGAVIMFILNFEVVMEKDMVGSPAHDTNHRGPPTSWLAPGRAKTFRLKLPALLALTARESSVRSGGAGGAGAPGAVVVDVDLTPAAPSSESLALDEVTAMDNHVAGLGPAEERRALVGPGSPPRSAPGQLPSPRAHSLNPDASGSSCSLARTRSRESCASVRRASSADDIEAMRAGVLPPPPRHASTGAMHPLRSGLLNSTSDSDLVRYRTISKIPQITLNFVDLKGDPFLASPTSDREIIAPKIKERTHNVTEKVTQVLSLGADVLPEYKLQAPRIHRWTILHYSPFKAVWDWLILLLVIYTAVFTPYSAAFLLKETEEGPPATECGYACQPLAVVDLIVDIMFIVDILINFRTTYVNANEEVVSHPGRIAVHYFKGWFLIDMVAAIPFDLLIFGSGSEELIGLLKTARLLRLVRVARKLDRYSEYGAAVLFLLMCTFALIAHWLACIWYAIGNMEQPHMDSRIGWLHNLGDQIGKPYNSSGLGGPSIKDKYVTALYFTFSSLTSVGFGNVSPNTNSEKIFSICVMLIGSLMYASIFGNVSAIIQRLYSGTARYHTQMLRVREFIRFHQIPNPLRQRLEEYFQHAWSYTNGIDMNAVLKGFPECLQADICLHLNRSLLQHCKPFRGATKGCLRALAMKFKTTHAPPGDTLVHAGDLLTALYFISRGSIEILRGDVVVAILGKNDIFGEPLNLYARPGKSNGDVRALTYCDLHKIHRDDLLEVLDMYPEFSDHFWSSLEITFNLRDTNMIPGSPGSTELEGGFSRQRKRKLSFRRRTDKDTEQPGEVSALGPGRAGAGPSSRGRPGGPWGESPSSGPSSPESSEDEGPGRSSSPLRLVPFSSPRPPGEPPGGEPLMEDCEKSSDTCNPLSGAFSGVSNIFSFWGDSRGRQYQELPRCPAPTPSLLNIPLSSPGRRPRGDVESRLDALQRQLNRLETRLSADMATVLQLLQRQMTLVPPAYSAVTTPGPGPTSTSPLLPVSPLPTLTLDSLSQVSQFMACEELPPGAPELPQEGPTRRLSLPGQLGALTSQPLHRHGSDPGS
Sequence of 5-hydroxytryptamine receptor 2A (Rattus norvegicus, UniProt P14842) (P14842 whole entry): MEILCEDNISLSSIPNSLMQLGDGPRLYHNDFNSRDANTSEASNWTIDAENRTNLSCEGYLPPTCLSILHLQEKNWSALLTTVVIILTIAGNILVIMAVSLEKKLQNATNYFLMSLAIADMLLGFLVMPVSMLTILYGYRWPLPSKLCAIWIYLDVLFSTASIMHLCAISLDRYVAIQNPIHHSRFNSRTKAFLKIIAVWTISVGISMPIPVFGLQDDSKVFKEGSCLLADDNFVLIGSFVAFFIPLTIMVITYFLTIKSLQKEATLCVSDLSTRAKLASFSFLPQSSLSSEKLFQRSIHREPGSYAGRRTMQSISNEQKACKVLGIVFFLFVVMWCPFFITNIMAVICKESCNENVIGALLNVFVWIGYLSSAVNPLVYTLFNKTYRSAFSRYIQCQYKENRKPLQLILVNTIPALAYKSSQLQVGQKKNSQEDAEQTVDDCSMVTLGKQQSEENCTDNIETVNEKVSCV
Sequence of Sodium-dependent serotonin transporter (Rattus norvegicus) (P31652 whole entry): as the sequence (P31652 whole entry) above
Sequence of 5-hydroxytryptamine receptor 2A (Homo sapiens, UniProt P28223) (P28223 whole entry): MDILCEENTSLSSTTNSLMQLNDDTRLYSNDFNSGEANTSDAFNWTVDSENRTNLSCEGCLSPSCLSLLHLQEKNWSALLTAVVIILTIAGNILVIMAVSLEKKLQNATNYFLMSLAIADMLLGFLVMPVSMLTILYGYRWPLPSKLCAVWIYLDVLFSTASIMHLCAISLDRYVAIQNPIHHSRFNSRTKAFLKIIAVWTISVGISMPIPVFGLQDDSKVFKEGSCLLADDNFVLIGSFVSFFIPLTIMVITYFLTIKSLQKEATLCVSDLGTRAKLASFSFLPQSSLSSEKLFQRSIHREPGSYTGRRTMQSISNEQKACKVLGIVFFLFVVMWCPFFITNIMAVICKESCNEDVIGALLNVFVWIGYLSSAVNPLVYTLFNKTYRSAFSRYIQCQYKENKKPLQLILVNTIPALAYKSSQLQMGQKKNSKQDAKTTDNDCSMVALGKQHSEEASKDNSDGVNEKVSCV

Row | SMILES | Ki [1] [nM] | Ki (Transporter [2]) [nM] | also measured
1 | CNCCC(Oc1cccc2c1OCO2)c1cccc(F)c1 (stereo not given) | 59.3 | 7.5 | –
2 | COc1ccc(C(CCN(C)C)Oc2cccc3c2OCO3)cc1OC (stereo not given) | 245 | 222 | –
3 | CNCC[C@H](Oc1cccc2ccccc12)c1cccs1 [DULOXETINE] | – | – | LD50 at 24 h [3]: 279 mg/kg; Ki [4]: 1240 nM; Ki [5]: 2470 nM; Ki [6]: 1010 nM; Ki at 60 min (histamine H1 receptor): 1270 nM; Activity (Mus musculus [7]): Dose-dependent-effect; minimal effective dose (Mus musculus [7]; po, read-out: MED): 16 mg/kg; Activity (Mus musculus [8]): Dose-dependent-effect; minimal effective dose (Mus musculus [8]; po, read-out: MED): 16 mg/kg; ED50 [9]: 30.9 mg/kg
4 | CN(C)CCC(Oc1cccc2c1OCO2)c1ccc(Cl)c(Cl)c1 (stereo not given) | 189 | 253 | –
5 | CNCCC(Oc1cccc2c1OCO2)c1cccc(C)c1 (stereo not given) | 50.6 | 20.4 | –
6 | NCCc1c[nH]c2ccc(O)cc12 | – | – | Activity [10]: 5.6%
7 | CN(C)CCC(Oc1cccc2c1OCO2)c1cccc(F)c1 (stereo not given) | 15.1 | 3 | Ki [4]: 89.3 nM; Ki [5]: 63.4 nM; Ki [6]: 1130 nM; Ki at 60 min (histamine H1 receptor): 549 nM; IC50 [11]: 940 nM
8 | CNCCC(Oc1cccc2c1OCO2)c1ccc(C)cc1 (stereo not given) | 17.4 | 48.8 | –
9 | CCc1nn(CCCN2CCN(c3cccc(Cl)c3)CC2)c(=O)n1CCOc1ccccc1 [NEFAZODONE] | – | – | Ki (Transporter [12]): 555 nM
10 | CNCCC(Oc1cccc2c1OCO2)c1ccc(Cl)c(Cl)c1 (stereo not given) | 43.6 | 15 | –
11 | CNCCC(Oc1cccc2c1OCO2)c1ccc(OC)c(OC)c1 (stereo not given) | 217 | 19.9 | –
12 | CN(C)CCC(Oc1cccc2c1OCO2)c1ccc(F)cc1 (stereo not given) | 4.2 | 2.8 | Ki [4]: 35.3 nM; Ki [5]: 29.6 nM; Ki [6]: 1240 nM; Ki at 60 min (histamine H1 receptor): 937 nM; IC50 [11]: 1110 nM
13 | Cc1ccccc1C(CCN(C)C)Oc1cccc2c1OCO2 (stereo not given) | 157 | 247 | –
14 | CNCCC(Oc1cccc2c1OCO2)c1ccc(OC)cc1 (stereo not given) | 109 | 25.5 | –
15 | CN(C)CCC(Oc1cccc2c1OCO2)c1cccc(Cl)c1 (stereo not given) | 103 | 70.4 | –
16 | CN(C)CCC(Oc1cccc2c1OCO2)c1ccc(F)c(F)c1 (stereo not given) | 237 | 139 | –
17 | CN(C)CCC(Oc1cccc2c1OCO2)c1ccccc1 (stereo not given) | 98.4 | 29.4 | –
18 | CN(C)CCC(Oc1cccc2c1OCO2)c1ccc(C(F)(F)F)cc1 (stereo not given) | 182 | 124 | –
19 | CN(C)CC[C@H](Oc1cccc2c1OCO2)c1ccc(F)cc1 | 3.3 | 12.7 | Ki [4]: 57.7 nM; Ki [5]: 71.2 nM; Ki [6]: 988 nM; Ki at 60 min (histamine H1 receptor): 823 nM; IC50 [11]: 907 nM
20 | CN(C)CCCC1(c2ccc(F)cc2)OCc2cc(C#N)ccc21 (stereo not given) | – | – | Activity [13]: 100%
21 | CN(C)CCC(Oc1cccc2c1OCO2)c1ccc2c(c1)OCO2 (stereo not given) | 9.5 | 4.9 | Ki [4]: 55.1 nM; Ki [5]: 105 nM; Ki [6]: 134 nM; Ki at 60 min (histamine H1 receptor): 426 nM; IC50 [11]: 371 nM
22 | Fc1ccc([C@@H]2CCNC[C@H]2COc2ccc3c(c2)OCO3)cc1 | – | – | Activity (Rattus norvegicus): inactive
23 | CNCCC(Oc1cccc2c1OCO2)c1ccccc1F (stereo not given) | 84.9 | 20.5 | –
